According to US11963997B2, “Anti-tumor polypeptide Bax-BH3, fluorescent polymeric nanomicelle, preparation method and use thereof” (Jilin University, priority 2021, dated 2024):
Residues, ends and D or L forms follow the SMILES beside them. No end group written: not given here. *: point of attachment. Cbz = O=C(OCc1ccccc1)*; CH2F = FC*

Key:
[1] = test system: HEK-293T cells; test: Annexin V-FITC flow cytometry-based apoptosis assay of transfected cells; format: cell-based
Method: (§1) The cultured HEK-293T cells (purchased from ATCC) were digested and counted with a hemocytometer, the resulting cells were diluted with a medium containing 10% fetal bovine serum (FBS) by volume, and added to a six-well plate, with 2×10^5 cells per well. The six-well plate was incubated in a 5% CO2 incubator at 37° C. until the cells grew to 50% to 70% confluence for transfection. […]
During the transfection, a mass-to-volume ratio (m:v) of the plasmid and the transfection reagent was 1:2, and 1 μg of the plasmid was added to each well of the six-well plate, and 2 μl of the transfection reagent was added correspondingly; the plasmid and transfection reagent were diluted with a serum-free medium in advance, shaken well, and allowed to stand at 25° C. for 5 min separately; the transfection reagent was pipetted to the serum-free medium containing the plasmid, flicked to mix well, and allowed to stand at 25° C. for 20 min to obtain a complex. […] Z-VAD-FMK (Selleck) was added to the six-well plate at a concentration of 20 μM 2 h before the transfection, nuclei were colored with a Hoechst 33342 dye, and condition of the cells after transfection was observed under a fluorescence microscope. […]

[2] = test system: HEK-293T cells; test: Fluorescence microscopy of HEK-293T cells after transfection (Hoechst 33342 nuclear staining); format: cell-based; details: 1 μg plasmid per well, 4 h transfection then 12 h culture, Z-VAD-FMK 20 μM added 2 h before transfection
Method: as §1
During the transfection, a mass-to-volume ratio (m:v) of the plasmid and the transfection reagent was 1:2, and 1 μg of the plasmid was added to each well of the six-well plate, and 2 μl of the transfection reagent was added correspondingly; the plasmid and transfection reagent were diluted with a serum-free medium in advance, shaken well, and allowed to stand at 25° C. for 5 min separately; the transfection reagent was pipetted to the serum-free medium containing the plasmid, flicked to mix well, and allowed to stand at 25° C. for 20 min to obtain a complex. […] Z-VAD-FMK (Selleck) was added to the six-well plate at a concentration of 20 μM 2 h before the transfection, nuclei were colored with a Hoechst 33342 dye, and condition of the cells after transfection was observed under a fluorescence microscope.

Compound | survival rate of cells (FIG. 4) ([1]; HEK-293T cells after transfection, in words) | condition of the cells after transfection observed under a fluorescence microscope [2] | effect on apoptosis ([1]; Bax-BH3 polypeptide expressed by the recombinant vector transfected into HEK-293T cells)
COC(=O)C[C@H](NC(=O)[C@H](C)NC(=O)[C@@H](NC(=O)OCc1ccccc1)C(C)C)C(=O)CF [Z-VAD-FMK] (Cbz-Val-Ala-Asp(OMe)-CH2F) | significantly improved | significantly inhibit apoptosis | –
DASTKKLSECLRRIGDELDS | – | – | promoting apoptosis
